# Values quoted from earlier work as cited in patent EP0620000A2, “Cosmetic or pharmaceutical use of N-acylalcanolamines” (RHONE-POULENC RORER GMBH, priority 1992, dated 1994).
# Conditions: orale Anwendung; tierexperimentelle Prüfungen; DE 27 56 866 A1
substance,measurement,value
N-Oleyl-Phosphatidylethanolaminen,antiarteriosklerotische bzw. antilipämische Wirkung,deutlich antiarteriosklerotische bzw. antilipämische Wirkung
